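GI50 is the concentration that inhibits growth by half. The concentration for full growth arrest is given as TGI.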
Columns and labels:
Assay in all cases: NCI-60 cell line screen, 384-well format
[1] = test system: NCI/ADR-RES ovarian
[2] = test system: CCRF-CEM leukemia
[3] = test system: SK-MEL-28 melanoma
[4] = test system: RPMI-8226 leukemia
[5] = test system: MDA-MB-231 breast
[6] = test system: HL-60(TB) leukemia
[7] = test system: HS 578T breast
[8] = test system: ACHN renal
[9] = test system: SF-295 CNS
[10] = test system: MDA-MB-435 melanoma
[11] = test system: EKVX NSCLC
[12] = test system: NCI-H322M lung
[13] = test system: MCF7 breast
[14] = test system: COLO 205 colon
[15] = test system: TK-10 renal
[16] = test system: UACC-257 melanoma
[17] = test system: LOX IMVI melanoma
[18] = test system: HCT-15 colon
[19] = test system: A549 NSCLC
[20] = test system: SK-MEL-5 melanoma
[21] = test system: K-562 leukemia
[22] = test system: IGROV1 ovarian
[23] = test system: DU-145 prostate
[24] = test system: OVCAR-4 ovarian
[25] = test system: OVCAR-3 ovarian
[26] = test system: HCT-116 colon
[27] = test system: CAKI-1 renal
[28] = test system: T-47D breast
[29] = test system: SR leukemia
[30] = test system: SN12C renal
[31] = test system: SW-620 colon
[32] = test system: SK-OV-3 ovarian
[33] = test system: NCI-H23 lung
[34] = test system: MDA-MB-468 breast
[35] = test system: HOP-62 NSCLC
[36] = test system: UACC-62 melanoma
[37] = test system: HCC-2998 colon
[38] = test system: 786-0 renal
[39] = test system: SF-539 CNS
[40] = test system: MALME-3M melanoma
[41] = test system: RXF 393 renal
[42] = test system: NCI-H522 lung
[43] = test system: BT-549 breast
[44] = test system: PC-3 prostate
[45] = test system: OVCAR-8 ovarian
[46] = test system: NCI-H226 lung
[47] = test system: UO-31 renal
[48] = test system: MOLT-4 leukemia
[49] = test system: SF-268 CNS
[50] = test system: NCI-H460 NSCLC
[51] = test system: U251 glioblastoma

`COc1ccc(/C=C\c2cc(OC)c(OC)c(OC)c2)cc1NC(=O)[C@@H](N)CO` was tested, and the GI50 [1] was < 10 nM, the TGI [1] was < 10 nM and the GI50 [2] was < 10 nM. For the same compound, the TGI [2] was < 10 nM, the GI50 [3] was < 10 nM and the TGI [3] was > 100000 nM. The GI50 [4] was < 10 nM, the TGI [4] was < 10 nM and the GI50 [5] was < 10 nM. The TGI [5] was > 100000 nM, the GI50 [6] was < 10 nM and the TGI [6] was < 10 nM. The GI50 [7] was < 10 nM, the TGI [7] was < 10 nM and the GI50 [8] was < 10 nM. For the same compound, the TGI [8] was 52200 nM, the GI50 [9] was < 10 nM and the TGI [9] was < 10 nM. For the same compound, the GI50 [10] was < 10 nM, the TGI [10] was < 10 nM and the GI50 [11] was < 10 nM. For the same compound, the TGI [11] was > 100000 nM, the GI50 [12] was < 10 nM and the TGI [12] was > 100000 nM. For the same compound, the GI50 [13] was 24.4 nM, the TGI [13] was 12700 nM and the GI50 [14] was < 10 nM. The TGI [14] was < 10 nM, the GI50 [15] was < 10 nM and the TGI [15] was > 100000 nM. The GI50 [16] was < 10 nM, the TGI [16] was > 100000 nM and the GI50 [17] was 12.2 nM. The TGI [17] was 80.3 nM, the GI50 [18] was < 10 nM and the TGI [18] was 92.2 nM. The GI50 [19] was < 10 nM, the TGI [19] was > 100000 nM and the GI50 [20] was < 10 nM. For the same compound, the TGI [20] was < 10 nM, the GI50 [21] was < 10 nM and the TGI [21] was 12.3 nM. For the same compound, the GI50 [22] was < 10 nM, the TGI [22] was 35900 nM and the GI50 [23] was < 10 nM. The TGI [23] was 70.1 nM, the GI50 [24] was 13.7 nM and the TGI [24] was > 100000 nM. For the same compound, the GI50 [25] was < 10 nM, the TGI [25] was 20.7 nM and the GI50 [26] was < 10 nM. The TGI [26] was 103 nM, the GI50 [27] was < 10 nM and the TGI [27] was > 100000 nM. The GI50 [28] was < 10 nM, the TGI [28] was 68600 nM and the GI50 [29] was < 10 nM. The TGI [29] was < 10 nM, the GI50 [30] was < 10 nM and the TGI [30] was 11900 nM. For the same compound, the GI50 [31] was < 10 nM, the TGI [31] was > 100000 nM and the GI50 [32] was < 10 nM. For the same compound, the TGI [32] was 12000 nM, the GI50 [33] was < 10 nM and the TGI [33] was 16.3 nM. For the same compound, the GI50 [34] was 13.3 nM, the TGI [34] was 29.7 nM and the GI50 [35] was < 10 nM. For the same compound, the TGI [35] was 196 nM, the GI50 [36] was < 10 nM and the TGI [36] was > 100000 nM. For the same compound, the GI50 [37] was < 10 nM, the TGI [37] was 29.7 nM and the GI50 [38] was < 10 nM. For the same compound, the TGI [38] was 58.2 nM, the GI50 [39] was < 10 nM and the TGI [39] was 27.7 nM. For the same compound, the GI50 [40] was < 10 nM, the TGI [40] was > 100000 nM and the GI50 [41] was < 10 nM. The TGI [41] was < 10 nM, the GI50 [42] was < 10 nM and the TGI [42] was < 10 nM. The GI50 [43] was < 10 nM, the TGI [43] was 25.2 nM and the GI50 [44] was < 10 nM. The TGI [44] was > 100000 nM, the GI50 [45] was 10.4 nM and the TGI [45] was 35.9 nM. For the same compound, the GI50 [46] was < 10 nM, the TGI [46] was 25.3 nM and the GI50 [47] was < 10 nM. The TGI [47] was > 100000 nM, the GI50 [48] was < 10 nM and the TGI [48] was < 10 nM. The GI50 [49] was < 10 nM, the TGI [49] was 78.5 nM and the GI50 [50] was 17.3 nM. The TGI [50] was 36 nM, the GI50 [51] was < 10 nM and the TGI [51] was 17900 nM.

Source: PubChem BioAssay (NCI)
